Measurements: patent US20210346378A1, “METHOD TO PREVENT AND TREAT ALOPECIA BY CALCIUM CHANNEL BLOCKERS, ANGIOTENSIN CONVERTING ENZYME INHIBITORS, AND ANGIOTENSIN RECEPTOR BLOCKERS” (priority 2019, published 2021)
Read-outs that look alike come from different tables or passages of the source.

Key:
[1] = test system: androgenic alopecia; conditions: cited from earlier work
[2] = test system: female pattern hair loss; conditions: women, facial hair growth during treatment; cited from earlier work
[3] = test system: alopecia; experiment: composition directly applied to the scalp on one side of the head, other side left untreated; type: in vivo, human
Excerpt: (§1) patient one is diagnosed with alopecia. A composition comprising the calcium channel blocker nifedipine is directly applied to the scalp on one side of the head while the other side is left untreated. […] patient one is diagnosed with alopecia. A composition comprising the ACE inhibitor enalapril is directly applied to the scalp on one side of the head while the other side is left untreated. […] patient one is diagnosed with alopecia. A composition comprising the angiotensin receptor blocker losartan is directly applied to the scalp on one side of the head while the other side is left untreated. […] patient two is diagnosed with alopecia. A composition comprising the calcium channel blocker nifedipine is directly applied to the scalp on one side of the head while the other side is left untreated. […] patient two is diagnosed with alopecia. A composition comprising the ACE inhibitor enalapril is directly applied to the scalp on one side of the head while the other side is left untreated. […] patient two is diagnosed with alopecia. A composition comprising the angiotensin receptor blocker losartan is directly applied to the scalp on one side of the head while the other side is left untreated.

[4] = test system: alopecia; experiment: composition directly injected into the scalp on one side of the head, other side left untreated; type: in vivo, human
Excerpt: as §1, with “injected into” for “applied to”, “the” for “the other”

Row | SMILES | hair count higher than baseline as compared to placebo ([1]; after 4 years) [%] | hair count higher than baseline as compared to placebo ([1]; after one year of treatment) [%] | time for facial hair growth side effect to resolve [2] | symptoms of alopecia, treated side versus untreated side ([3]; patient one) | symptoms of alopecia, treated side versus untreated side ([3]; patient two) | symptoms of alopecia, treated side versus untreated side ([4]; patient one) | symptoms of alopecia, treated side versus untreated side ([4]; patient two)
1 | CC(C)(C)NC(=O)[C@H]1CC[C@H]2[C@@H]3CC[C@H]4NC(=O)C=C[C@]4(C)[C@H]3CC[C@]12C [Finasteride] | 24.3 | 9.42 |  |  |  |  | 
2 | Nc1cc(N2CCCCC2)nc(N)[n+]1[O-] [Minoxidil] |  |  | at least 4 months |  |  |  | 
3 | CCOC(=O)[C@H](CCc1ccccc1)N[C@@H](C)C(=O)N1CCC[C@H]1C(=O)O [enalapril] |  |  |  | reduced symptoms of alopecia | reduced symptoms of alopecia | reduced symptoms of alopecia | reduced symptoms of alopecia
4 | CCCCc1nc(Cl)c(CO)n1Cc1ccc(-c2ccccc2-c2nn[nH]n2)cc1 [losartan] |  |  |  | reduced symptoms of alopecia | reduced symptoms of alopecia | reduced symptoms of alopecia | reduced symptoms of alopecia
